Format in all cases: cell-based
In test [1] the target is T1, recombinant rat GluN1/GluN2C (Rattus norvegicus, UniProt P35439+Q00961).
T1 construct: expressed in transfected cells; host or cells: Xenopus laevis oocytes (Ecocyte) injected with in vitro transcribed cRNA
Description: Two-electrode voltage-clamp (TEVC) recordings in Xenopus laevis oocytes, GluN1/GluN2C. As to the method:
(§1) Data are from between 3-26 oocytes from 2-5 frogs for each compound and receptor tested.
(§2) Two-electrode voltage-clamp recordings were performed in Xenopus laevis oocytes (Ecocyte) expressing recombinant rat GluN1/GluN2A, GluN1/GluN2B, GluN1/GluN2C, GluN1/GluN2D. cRNA was transcribed in vitro (Ambion), diluted with nuclease free water, and injected at a ratio of 1:2 GluN1:GluN2 (5-10 ng total cRNA). The oocytes were kept in Barth's solution comprised of (in mM) 88 NaCl, 5 Tris-HCl, 2.4 NaHCO3, 1 KCl, 0.84 MgSO4, 0.41 CaCl2, and 0.33 Ca(NO3)2 at pH 7.4 at 15-17° C. for two to five days before experiments. Oocytes were placed into a perfusion chamber and continually washed with recording solution containing (in mM) 90 NaCl, 1.0 KCl, 0.5 BaCl2, 0.005 EDTA, and 10 HEPES at pH 7.4 (23° C.). Voltage clamp recordings were conducted at a holding potential of −40 mV. All compounds were made as 20 mM stock solutions in DMSO and dissolved to reach the final concentration in recording solution. Final DMSO content was 0.05-0.5% (vol/vol). Some oocytes expressing GluN1/GluN2A were pretreated with […] BAPTA-AM for 10 minutes or injected with […] of 2 mM K-BAPTA to prevent gradual run-up of the current response.

Test [2] addresses T2, recombinant rat GluN1/GluN2D (Rattus norvegicus, UniProt Q62645).
T2 construct: expressed in transfected cells; host or cells: Xenopus laevis oocytes (Ecocyte) injected with in vitro transcribed cRNA
Description: Two-electrode voltage-clamp (TEVC) recordings in Xenopus laevis oocytes, GluN1/GluN2D. The following applies: for EC50: untitled tables after drawing 25 and drawing 36, read-out: EC50 (μM) GluN2D; for EC50 & Max Effect: 2D Max (%): Tables 11-13; for I30 μM/Icontrol (mean ± SEM, %) GluN2D: 30 μM compound, Tables 5-7. As to the method: as §1, §2

Test [3] has as its target T3, recombinant rat GluN1/GluN2B (Rattus norvegicus, UniProt Q00960).
T3 construct: expressed in transfected cells; host or cells: Xenopus laevis oocytes (Ecocyte) injected with in vitro transcribed cRNA
In words: Two-electrode voltage-clamp (TEVC) recordings in Xenopus laevis oocytes, GluN1/GluN2B. The following applies: for I30 μM/Icontrol (mean ± SEM, %) GluN2B: 30 μM compound, Tables 5-7. As to the method:
as §1, §2

For test [4], the target named is T4, recombinant rat GluN1/GluN2C (Rattus norvegicus, UniProt Q00961).
T4 construct: expressed in transfected cells; host or cells: Xenopus laevis oocytes (Ecocyte) injected with in vitro transcribed cRNA
T4 sequence (Q00961 20-1237, other chains not shown): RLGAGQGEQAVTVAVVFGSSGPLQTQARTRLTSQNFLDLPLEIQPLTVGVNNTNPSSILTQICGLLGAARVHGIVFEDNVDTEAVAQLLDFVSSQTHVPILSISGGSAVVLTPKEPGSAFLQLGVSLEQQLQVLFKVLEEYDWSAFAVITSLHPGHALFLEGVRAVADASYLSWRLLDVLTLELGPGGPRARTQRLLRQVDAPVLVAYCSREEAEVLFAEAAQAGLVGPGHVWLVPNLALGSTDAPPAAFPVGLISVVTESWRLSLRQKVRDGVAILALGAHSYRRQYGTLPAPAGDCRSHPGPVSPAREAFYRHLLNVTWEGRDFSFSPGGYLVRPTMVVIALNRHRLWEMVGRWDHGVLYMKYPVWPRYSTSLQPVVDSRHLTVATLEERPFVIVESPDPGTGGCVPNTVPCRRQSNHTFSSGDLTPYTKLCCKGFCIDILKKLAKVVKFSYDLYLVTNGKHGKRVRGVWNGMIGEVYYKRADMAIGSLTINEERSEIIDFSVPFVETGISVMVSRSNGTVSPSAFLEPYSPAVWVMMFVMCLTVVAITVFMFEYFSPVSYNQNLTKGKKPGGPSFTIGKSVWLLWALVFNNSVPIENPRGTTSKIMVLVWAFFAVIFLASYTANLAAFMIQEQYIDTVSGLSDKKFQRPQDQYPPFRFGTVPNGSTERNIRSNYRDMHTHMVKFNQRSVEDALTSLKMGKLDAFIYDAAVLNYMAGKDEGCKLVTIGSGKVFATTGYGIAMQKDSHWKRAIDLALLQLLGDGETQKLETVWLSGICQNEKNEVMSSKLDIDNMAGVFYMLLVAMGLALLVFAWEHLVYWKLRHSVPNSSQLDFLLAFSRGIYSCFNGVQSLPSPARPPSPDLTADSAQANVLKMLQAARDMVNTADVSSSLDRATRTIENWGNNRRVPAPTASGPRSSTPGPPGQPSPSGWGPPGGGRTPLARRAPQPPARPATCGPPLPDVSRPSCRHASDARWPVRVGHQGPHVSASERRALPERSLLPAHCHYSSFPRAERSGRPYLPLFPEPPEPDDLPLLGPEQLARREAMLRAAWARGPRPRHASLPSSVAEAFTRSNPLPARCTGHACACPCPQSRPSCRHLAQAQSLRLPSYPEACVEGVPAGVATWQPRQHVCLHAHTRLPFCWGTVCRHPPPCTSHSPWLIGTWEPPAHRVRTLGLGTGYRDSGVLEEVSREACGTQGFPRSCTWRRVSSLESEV
In words: Two-electrode voltage-clamp (TEVC) recordings in Xenopus laevis oocytes, GluN1/GluN2C. To be noted: for EC50: untitled tables after drawing 25 and drawing 36, read-out: EC50 (μM) GluN2C; for I30 μM/Icontrol (mean ± SEM, %) GluN2C: 30 μM compound, Tables 5-7. As for the experimental part:
as §1, §2

Structures are written as SMILES. pEC50: −log10 of the molar value. Like-named read-outs stand apart in the source and are kept apart here.

T3 sequence (Q00960 27-1482, other chains not shown): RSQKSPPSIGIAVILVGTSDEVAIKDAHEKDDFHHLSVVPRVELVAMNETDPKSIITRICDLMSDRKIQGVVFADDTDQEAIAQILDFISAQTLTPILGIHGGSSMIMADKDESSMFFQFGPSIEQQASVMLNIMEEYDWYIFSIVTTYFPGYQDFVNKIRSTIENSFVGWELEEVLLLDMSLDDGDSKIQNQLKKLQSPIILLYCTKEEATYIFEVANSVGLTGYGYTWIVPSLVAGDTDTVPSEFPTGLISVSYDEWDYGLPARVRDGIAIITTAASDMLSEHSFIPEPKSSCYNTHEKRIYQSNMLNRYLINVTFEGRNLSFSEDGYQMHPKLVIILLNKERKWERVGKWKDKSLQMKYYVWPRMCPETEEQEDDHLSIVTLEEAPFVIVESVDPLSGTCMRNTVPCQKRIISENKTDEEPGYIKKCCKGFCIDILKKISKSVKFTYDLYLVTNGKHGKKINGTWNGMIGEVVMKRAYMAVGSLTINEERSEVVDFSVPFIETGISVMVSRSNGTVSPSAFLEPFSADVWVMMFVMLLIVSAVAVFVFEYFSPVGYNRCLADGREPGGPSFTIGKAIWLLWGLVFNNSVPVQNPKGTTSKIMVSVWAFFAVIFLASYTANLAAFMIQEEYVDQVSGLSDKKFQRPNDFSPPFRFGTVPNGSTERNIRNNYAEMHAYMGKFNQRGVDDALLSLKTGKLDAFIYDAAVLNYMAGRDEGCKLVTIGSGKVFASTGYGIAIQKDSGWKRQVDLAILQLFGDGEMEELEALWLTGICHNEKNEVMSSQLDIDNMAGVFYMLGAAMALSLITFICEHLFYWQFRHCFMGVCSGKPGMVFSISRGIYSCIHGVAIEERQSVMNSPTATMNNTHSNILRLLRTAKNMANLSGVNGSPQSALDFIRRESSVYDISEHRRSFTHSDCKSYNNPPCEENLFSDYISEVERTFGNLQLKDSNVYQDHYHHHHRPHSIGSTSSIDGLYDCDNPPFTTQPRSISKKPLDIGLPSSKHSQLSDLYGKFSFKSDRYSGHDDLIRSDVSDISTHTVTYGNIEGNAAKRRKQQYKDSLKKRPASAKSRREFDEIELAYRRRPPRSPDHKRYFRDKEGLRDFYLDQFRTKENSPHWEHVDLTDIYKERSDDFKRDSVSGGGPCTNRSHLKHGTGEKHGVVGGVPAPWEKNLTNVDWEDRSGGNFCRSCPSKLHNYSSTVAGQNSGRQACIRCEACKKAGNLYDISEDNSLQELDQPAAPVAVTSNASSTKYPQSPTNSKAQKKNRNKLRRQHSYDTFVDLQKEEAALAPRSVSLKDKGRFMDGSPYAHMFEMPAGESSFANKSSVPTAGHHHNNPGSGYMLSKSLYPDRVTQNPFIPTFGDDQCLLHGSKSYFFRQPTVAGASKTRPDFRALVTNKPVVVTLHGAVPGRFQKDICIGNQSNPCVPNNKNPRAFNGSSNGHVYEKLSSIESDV
T2 sequence (Q62645 28-1323, other chains not shown): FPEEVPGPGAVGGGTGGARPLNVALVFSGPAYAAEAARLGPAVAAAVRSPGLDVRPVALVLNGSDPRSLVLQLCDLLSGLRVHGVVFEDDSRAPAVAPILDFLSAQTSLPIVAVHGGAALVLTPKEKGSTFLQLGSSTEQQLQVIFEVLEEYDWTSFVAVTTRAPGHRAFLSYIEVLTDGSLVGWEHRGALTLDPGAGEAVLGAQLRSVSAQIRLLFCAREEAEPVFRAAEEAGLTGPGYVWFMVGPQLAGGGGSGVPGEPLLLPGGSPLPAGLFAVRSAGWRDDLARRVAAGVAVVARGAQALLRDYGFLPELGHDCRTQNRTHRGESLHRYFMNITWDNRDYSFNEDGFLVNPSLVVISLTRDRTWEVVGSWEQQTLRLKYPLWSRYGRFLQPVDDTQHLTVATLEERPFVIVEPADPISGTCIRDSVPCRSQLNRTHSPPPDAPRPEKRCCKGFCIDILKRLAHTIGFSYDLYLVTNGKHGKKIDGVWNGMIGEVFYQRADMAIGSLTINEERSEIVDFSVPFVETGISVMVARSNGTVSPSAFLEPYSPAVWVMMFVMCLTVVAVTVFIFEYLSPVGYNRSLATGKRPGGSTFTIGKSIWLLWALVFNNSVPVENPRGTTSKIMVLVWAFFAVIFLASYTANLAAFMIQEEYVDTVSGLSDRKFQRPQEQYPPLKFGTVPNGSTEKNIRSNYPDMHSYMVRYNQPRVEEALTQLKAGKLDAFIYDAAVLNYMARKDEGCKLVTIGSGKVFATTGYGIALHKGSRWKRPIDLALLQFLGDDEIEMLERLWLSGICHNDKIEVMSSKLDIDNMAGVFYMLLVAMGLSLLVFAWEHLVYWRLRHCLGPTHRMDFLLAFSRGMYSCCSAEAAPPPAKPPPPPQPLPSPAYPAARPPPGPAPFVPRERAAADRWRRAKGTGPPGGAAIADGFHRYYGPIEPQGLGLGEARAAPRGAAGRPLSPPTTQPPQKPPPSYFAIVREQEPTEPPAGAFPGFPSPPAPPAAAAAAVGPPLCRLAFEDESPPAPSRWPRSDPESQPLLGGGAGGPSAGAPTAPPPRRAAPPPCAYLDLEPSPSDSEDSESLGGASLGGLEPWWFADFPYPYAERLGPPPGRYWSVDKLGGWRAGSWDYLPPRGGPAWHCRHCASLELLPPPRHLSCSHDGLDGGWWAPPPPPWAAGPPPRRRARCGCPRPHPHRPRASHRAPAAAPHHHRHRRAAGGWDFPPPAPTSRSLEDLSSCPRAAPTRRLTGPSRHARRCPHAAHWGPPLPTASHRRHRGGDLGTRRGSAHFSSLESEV
T1 sequence (Q00961 20-1237, other chains not shown): as the sequence (Q00961 20-1237, other chains not shown) above

With `COc1ccc(OCC2c3ccc(OC)cc3CCN2C(=O)c2coc(Cl)n2)cc1` (stereo not shown) [1180-247], in test [1] (untitled tables after drawing 25 and drawing 36, read-out: EC50 (μM) GluN2C), the EC50 was 65 µM. The “GluN2D response % at 100 μM” value in test [2] (at 100 μM) came to 223% at 100. Besides, in test [3], the “GluN2B response % at 30 µM” value worked out at 99% at 30.
For the compound `COc1ccc(OCC2c3ccc(OC)cc3CCN2C(=O)C=CCl)cc1` (stereo not shown) [1180-251], in test [4], the “GluN2C response % at 30 µM” value was determined as 99% at 30. In test [2], the “GluN2D response % at 30 µM” value was 88% at 30. The “GluN2B response % at 30 µM” value in test [3] turned out to be 96% at 30.
In the case of `COc1ccc(OCC2c3ccc(OC)cc3CCN2C(=O)C=CC(F)(F)F)cc1` (stereo not shown) [1180-253], the EC50 was determined as 7 µM in test [4] and 9 µM in test [2]. The “GluN2B response % at 30 µM” value in test [3] amounted to 101% at 30.
On the same counts, the results for `COc1ccc(OCC2c3ccc(OC)cc3CCN2C(=O)C=C(C)C(F)(F)F)cc1` (stereo not shown) [1180-255] are 15 µM, 23 µM and 99% at 30.
As for `CCOc1ccc(OCC2c3ccc(OC(C)C)cc3CCN2C(=O)C=C(C)C(F)(F)F)cc1` (stereo not shown) [1180-263], the “GluN2C response % at 30 µM” value in test [4] worked out at 165% at 30. For the same compound, in test [2], the “GluN2D response % at 30 µM” value is 146% at 30. The “GluN2B response % at 30 µM” value in test [3] came to 145% at 30.
Take `CC(C)Oc1ccc(OCC2c3ccc(OC(C)C)cc3CCN2C(=O)c2cccc(Cl)c2)cc1` (stereo not shown) [1180-264]: the “GluN2C response % at 30 µM” value in test [4] is on record as 127% at. In addition, the “GluN2D response % at 30 µM” value in test [2] is on record as 101% at. The EC50 in test [3] (untitled tables after drawing 25 and drawing 36, read-out: EC50 (μM) GluN2B) was 4.6 µM.
Consider `COc1ccc(OCC2c3cc(O)c(OC)cc3CCN2C(=O)C=CC(F)(F)F)cc1` (stereo not shown) [1180-328], for which the “GluN2C response % at 30 µM” value in test [4] is 109 at 30%. In test [2], the “GluN2D response % at 30 µM” value is recorded as 120 at 30%. Besides, the “GluN2B response % at 30 µM” value in test [3] stood at 100 at 30%.
On the same counts, the results for `COc1ccc(OCC2c3cc(OC(=O)c4cccc(Cl)c4)c(OC)cc3CCN2C(=O)C=CC(F)(F)F)cc1` (stereo not shown) [1180-330] are 102 at 30%, 96 at 30% and 95 at 30%.
Regarding `COc1ccc(OCC2c3cc(OC)c(OC)cc3CCN2C(=O)c2cccc(Cl)c2)cc1` (stereo not shown) [1390 (CIQ), reference compound], the “EC50 & Max Effect: 2C Max (%)” value in test [4] turned out to be 215%. Besides, in test [4] (read-out: EC50 & Max Effect: 2C), the pEC50 is 5.54. In addition, the “EC50 & Max Effect: 2D Max (%)” value in test [2] is reported as 205%.
As for `CCOc1ccc(OC[C@H]2c3ccc(OC(C)C)cc3CCN2C(=O)c2cccc(F)c2)cc1` [(R)-(+)-1180-87], the “I30 μM/Icontrol (mean ± SEM, %) GluN2C” value in test [4] came to 103%. Moreover, the “I30 μM/Icontrol (mean ± SEM, %) GluN2D” value in test [2] is on record as 86%. Moreover, in test [3], the “I30 μM/Icontrol (mean ± SEM, %) GluN2B” value came out at 103%.
Regarding `CCOc1ccc(OC[C@H]2c3ccc(OC(C)C)cc3CCN2C(=O)c2cccc(C(F)(F)F)c2)cc1` [(R)-(+)-1180-92], in test [4], the “I30 μM/Icontrol (mean ± SEM, %) GluN2C” value was determined as 73%. Further, in test [2], the “I30 μM/Icontrol (mean ± SEM, %) GluN2D” value is 75%. Moreover, the “I30 μM/Icontrol (mean ± SEM, %) GluN2B” value in test [3] is 75%.
As for `CCOc1ccc(OC[C@H]2c3ccc(OC(C)C)cc3CCN2C(=O)c2ccc(Cl)c(Cl)c2)cc1` [(R)-(+)-1180-103], the “I30 μM/Icontrol (mean ± SEM, %) GluN2C” value in test [4] was 92%. Moreover, the “I30 μM/Icontrol (mean ± SEM, %) GluN2D” value in test [2] turned out to be 93%. The “I30 μM/Icontrol (mean ± SEM, %) GluN2B” value in test [3] is listed as 83%.
In the case of `COc1ccc(OC[C@H]2c3cc(OC)c(OC)cc3CCN2C(=O)c2cccc(Cl)c2)cc1` [R-1390], the “EC50 & Max Effect: 2C (μM)” value in test [4] is “Inactive”. In addition, the “EC50 & Max Effect: 2D (μM)” value in test [2] is listed as “Inactive”.
Regarding `COc1ccc(OCC2c3cc(OC)c(OC)cc3CCN2C(=O)c2cccc(Br)c2)cc1` (stereo not shown) [compound 1391], the Emax in test [1] (Tables 11-13, read-out: EC50 & Max Effect: 2C Max (%)) stood at 145%. In addition, in test [2], the “EC50 & Max Effect: 2D Max (%)” value is 188%.

For the origin of these results see patent publication US10647679B2, “N-methyl-D-aspartate receptor (NMDAR) potentiators, pharmaceutical compositions, and uses related thereto” (Emory University, priority 2015, dated 2020).
